Measured values from PubChem BioAssay (NCI).
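48-hour exposure; five concentrations; linearly interpolated endpoints. The concentration for 50% growth inhibition is given as GI50. TGI marks complete inhibition of growth.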

Columns and labels:
Assay in all cases: inhibition of tumour cell growth, NCI panel, 48 h
M14 melanoma = system: M14 melanoma
HS 578T breast = system: HS 578T breast
HL-60(TB) leukemia = system: HL-60(TB) leukemia
NCI-H23 lung = system: NCI-H23 lung
U251 CNS = system: U251 CNS
UACC-257 melanoma = system: UACC-257 melanoma
LOX IMVI melanoma = system: LOX IMVI melanoma
CAKI-1 renal = system: CAKI-1 renal
OVCAR-4 ovarian = system: OVCAR-4 ovarian
DU-145 prostate = system: DU-145 prostate

Row | Compound | TGI (M14 melanoma) [µM] | TGI (HS 578T breast) [µM] | TGI (HL-60(TB) leukemia) [µM] | TGI (NCI-H23 lung) [µM] | TGI (U251 CNS) [µM] | TGI (UACC-257 melanoma) [µM] | TGI (LOX IMVI melanoma) [µM] | TGI (CAKI-1 renal) [µM] | TGI (OVCAR-4 ovarian) [µM] | TGI (DU-145 prostate) [µM] | GI50 (M14 melanoma) [µM] | GI50 (DU-145 prostate) [µM] | GI50 (HS 578T breast) [µM] | GI50 (HL-60(TB) leukemia) [µM] | GI50 (OVCAR-4 ovarian) [µM] | GI50 (NCI-H23 lung) [µM] | GI50 (LOX IMVI melanoma) [µM] | GI50 (U251 CNS) [µM] | GI50 (UACC-257 melanoma) [µM] | GI50 (CAKI-1 renal) [µM]
1 | COc1ccc(C2OC(=O)c3c2ccc2ccccc32)c(C)c1 (stereo not given) | > 100 | > 100 | 5.38 | > 100 | 20.2 | 80.5 | – | – | – | – | – | – | – | – | – | – | – | – | – | –
2 | Nc1nc2c(ncn2C2OC(CO)C(O)C2N)c(=O)[nH]1 (stereo not given) | > 100 | – | > 100 | > 100 | > 100 | > 100 | > 100 | > 100 | – | – | – | – | – | – | – | – | – | – | – | –
3 | O=C(N/N=C(/c1nc2ccc(Cl)cc2[nH]c1=O)C(O)c1ccc(Cl)cc1Cl)c1ccncc1 (stereo not given) | > 100 | – | > 100 | > 100 | > 100 | > 100 | > 100 | > 100 | – | – | – | – | – | – | – | – | – | – | – | –
4 | Cc1nc(C)c(C(=O)Nc2cccc3c2C(=O)NC3=O)cc1C(=O)Nc1cccc2c1C(=O)NC2=O | > 100 | – | > 100 | > 100 | > 100 | > 100 | > 100 | > 100 | > 100 | – | – | – | – | – | – | – | – | – | – | –
5 | CCOC1OCCCC1Br (stereo not given) | > 100 | > 100 | – | > 100 | – | > 100 | > 100 | > 100 | > 100 | > 100 | – | – | – | – | – | – | – | – | – | –
6 | COC(=O)C1=C(OC)c2cc3c(cc2C(c2cc(OC)c(OC)c(OC)c2)C1C(=O)OC)OCO3 (stereo not given) | > 100 | – | > 100 | > 100 | > 100 | > 100 | > 100 | > 100 | > 100 | – | – | – | – | – | – | – | – | – | – | –
7 | O=C1C2c3[nH]c4ccccc4c3[C@@H]3CCCCCCCCCCC3C2C(=O)N1c1ccccc1 (stereo not given in full) | 34.3 | – | 30.2 | 37.5 | 37.8 | – | 43.3 | – | 57.5 | – | – | – | – | – | – | – | – | – | – | –
8 | CCCCCCCCCCCC(=O)OCC1OC(n2cc(F)c(=O)[nH]c2=O)C(NC(=O)OCc2ccccc2)C(O)C1O (stereo not given) | 36.2 | – | 49.7 | 93.6 | 38.9 | 50.8 | 32.4 | > 100 | 63.9 | – | – | – | – | – | – | – | – | – | – | –
9 | COc1ccc(/C=C2\Cc3ccccc3C2=O)cc1OC | > 100 | – | – | > 100 | > 100 | > 100 | – | > 100 | > 100 | – | – | – | – | – | – | – | – | – | – | –
10 | CCOC(=O)C1N(S(=O)(=O)c2ccc(C)cc2)CCC12c1ccccc1N(C(C)=O)C2C(/C=C/C(=O)OC)=C/C(=O)OC (stereo not given) | > 100 | – | > 100 | > 100 | > 100 | > 100 | > 100 | > 100 | > 100 | – | – | – | – | – | – | – | – | – | – | –
11 | N#Cc1cccc(NC(=O)c2ccc(C(=O)O)c(C(=O)c3ccc(C(=O)O)c(C(=O)Nc4cccc(C#N)c4)c3)c2)c1 | > 100 | – | > 100 | > 100 | > 100 | > 100 | > 100 | > 100 | > 100 | – | – | – | – | – | – | – | – | – | – | –
12 | O=C(c1cc(O)ccc1O)c1ccccc1C(Cl)(Cl)Cl | > 100 | – | 97.3 | > 100 | > 100 | > 100 | – | > 100 | > 100 | – | – | – | – | – | – | – | – | – | – | –
13 | Cn1cnc([N+](=O)[O-])c1Sc1ccccn1 | > 100 | – | – | > 100 | > 100 | > 100 | > 100 | > 100 | > 100 | – | – | – | – | – | – | – | – | – | – | –
14 | CC1=NNC(=NCCN(C)C)C/C1=C/c1ccccc1Cl | > 100 | – | – | > 100 | > 100 | 98 | > 100 | > 100 | > 100 | – | – | – | – | – | – | – | – | – | – | –
15 | COC(=O)/C=C/C(=O)C1C(C(=O)OC)C2(C(=O)OC)CCC1(C(=O)OC)N2 (stereo not given) | > 100 | – | > 100 | > 100 | > 100 | – | – | > 100 | > 100 | – | – | – | – | – | – | – | – | – | – | –
16 | O=C(c1ccccc1)C1C(C(=O)c2ccccc2)N1Cc1ccccc1 (stereo not given) | > 100 | > 100 | – | > 100 | > 100 | > 100 | > 100 | > 100 | > 100 | 85.8 | – | – | – | – | – | – | – | – | – | –
17 | C=C(C=O)C1CC(=O)C(C(=O)OC)[C@@H]2O[C@@](C)(CC2=O)C[C@@H]2OC(=O)[C@]3(O[C@@H]23)[C@@H](C(=O)OC)C1 (stereo not given in full) | 30.4 | > 100 | 53.5 | 42.8 | 39.8 | 28.6 | 21.3 | – | 92.4 | > 100 | 14.8 | 28.9 | 32.8 | 20.1 | 30 | 18.3 | 7.94 | 14.6 | 10.2 | –
18 | CCN(CC)CCN1C(=O)c2c(c(C)c3c(oc4cc(O)ccc43)c2C)C1=O | 3.63 | – | – | 3.2 | – | 4.15 | 3.18 | 3.06 | 3.37 | 3.41 | 1.81 | 1.72 | – | – | 1.69 | 1.7 | 1.7 | – | 1.95 | 1.66
19 | O=C1c2ccccc2C(=O)c2c1ccc(C(Br)Br)c2[N+](=O)[O-] | 3.94 | 6.75 | 4.22 | 4.34 | 2.97 | 3.28 | 2.59 | – | 2.73 | 4.01 | 1.97 | 1.98 | 2.28 | 1.87 | 1.34 | 1.6 | 1.27 | 1.6 | 1.74 | –
20 | CC(=O)OCC1OC(OC2C(COC(C)=O)OC(OCCC[S-])C(OC(C)=O)C2OC(C)=O)C(OC(C)=O)C(OC(C)=O)C1OC(C)=O.[Au+].c1ccc(CN2[CH-]N(Cc3ccccc3)C(c3ccccc3)=C2c2ccccc2)cc1 (stereo not given) | 14.5 | 87.7 | 6.43 | 14 | 7.47 | 10.4 | 13.6 | – | 22.9 | 17 | 3.26 | 4.5 | 9.16 | 2.49 | 3.45 | 3.23 | 3.42 | 2.77 | 3.44 | –
21 | Cc1cc(C)cc(-n2c3nc(=O)n(C)c(=O)c-3nc3ccccc32)c1 | 77.4 | – | – | 39 | 50.5 | 31.2 | 91.8 | 87.3 | 41.5 | – | – | – | – | – | – | – | – | – | – | –
22 | O=P(Oc1ccc(Cl)cc1)(Oc1ccc(Cl)cc1)N1CC1 | > 10 | > 10 | > 10 | > 10 | > 10 | > 10 | > 10 | – | > 10 | > 10 | – | – | – | – | – | – | – | – | – | –
